According to patent US8815887B2, “Prophylactic or therapeutic method for Sjogren's syndrome” (Takeda Pharmaceutical Company Limited, priority 2012, dated 2014):

What was measured:
Assay type in all cases: in vivo
NOD/ShiLtJ mouse [1] = test: Saliva secretion amount by pilocarpine stimulation in Sjogren's syndrome animal model
Description: As an animal model for Sjogren's syndrome, most widely used NOD/ShiLtJ mouse (hereinafter sometimes referred to as NOD mouse) was selected since it meets the both conditions of the diagnosis standard: 1) development of dry eye and dry mouth, 2) increase of anti-SS-A/Ro and anti-SS-B/La antibody titer, and is easily available (Tegan N. Lavoie et. al., Journal of Biomedicine and Biotechnology Volume 2011 (2011), Article ID 549107, pp 1-14). 6-Week-old NOD mice were purchased from The Jackson Laboratory (US), after acclimatization for 1-2 weeks, animals before onset of diabetes were divided into 3 groups (maximum 30 mice per group) by randomization into each of the groups based on the body weight measured before the start of the test drug administration and the data of saliva secretion amount by pilocarpine stimulation under ketamine•xylazine anesthesia and subjected to the test. During the test drug treatment, the body weight and the blood glucose level were monitored at least once a week. The blood glucose level of several μL of the blood collected from the tail vein under 1-5% isoflurane anesthesia was measured by a blood glucose level measuring instrument (Accu-Chek Aviva Nano, Roche diagnostics K.K.). The diabetes diagnosis criteria was not less than 250 mg/dL, and one insulin pellet (LinBit, LinShin Canada, Inc.) was subcutaneously transplanted under 1-5% isoflurane anesthesia into the abdomen of the mouse that developed diabetes, and the blood glucose was controlled during the study by monitoring the blood glucose level, and adding or removing the pellet as necessary.
Compound A was orally administered twice daily (minimum ic dosing interval 6 hours) every day except Saturdays and Sundays. The dose of compound A was 50 mg/kg or 250 mg/kg, and 0.2 mL was orally administered as a single dose. The concentration of compound A was appropriately controlled by calculating an average body weight of the group once a week from the body weights of the NOD mice, and adjusting the concentration such that the administration of 0.2 mL results in the administration of each dose. On the other hand, the vehicle group without administration of compound A was orally administered with 0.2 mL of 0.5% methylcellulose solution in the same schedule as above.
Under anesthesia by intraperitoneal administration of a mixture (10 mL/kg) of ketamine (100 mg/kg) and xylazine (10 mg/kg), the saliva secreted in 15 min after subcutaneous administration of pilocarpine (5 mg/kg) was collected with defatted cotton, and the secretion amount was calculated from the defatted cotton weight before and after the measurement.
This measurement was performed twice when the mice reached 21-week-old and 26-week-old.
(§1) The saliva secretion amount in 23-week-old NOD mice administered with compound A or compound B was measured in the same manner as in Experimental Example 2.

NOD/ShiLtJ mouse [2] = test: Tolerability in the long-term efficacy study (Experimental Example 3); conditions: relatively long term, same dose range (50 and 250 mg/kg)
Experimental: as §1

[3] = tested on: CD4+ T cells in the salivary gland; test: CD4 mRNA level (CD4+ T cells) in salivary gland tissue, normalized to β-actin; conditions: 26-week-old NOD mouse, compound A treatment group (50 and 250 mg/kg)
Description: (§2) The salivary gland of the 26-week-old NOD mice used in Experimental Example 2 for the measurement of the saliva secretion amount was removed, the total RNA was recovered from there, and the mRNA levels of CD4, CD8 and CCR9 were normalize with the β-actin expression level as the internal standard.

[4] = tested on: CD8+ T cells in the salivary gland; test: CD8 mRNA level (CD8+ T cells) in salivary gland tissue, normalized to β-actin; conditions: 26-week-old NOD mouse
Description: as §2

CCR9 = CCR9 mRNA expression level in salivary gland tissue, normalized to β-actin; conditions: 26-week-old NOD mouse, 50 and 250 mg/kg
Description: as §2

anti-SS-A/Ro antibody = test: Anti-SS-A/Ro Ig ELISA of blood of Sjogren's syndrome animal model; conditions: 26-week-old NOD mouse; for onset frequency (positive anti-SS-A/Ro, antibody titer not less than 30 Unit): vehicle 100% onset
Experimental: Blood samples from the 26-week-old NOD mice used in Experimental Example 2 for the measurement of the saliva secretion amount were collected, and ELISA test was carried out for two subsets of anti-SS-A/Ro and anti-SS-B/La found commonly in Sjogren's syndrome.
For quantification of the Total Anti-SSA Ig (IgG+IgA+IgM) in the serum, commercially available Mouse Anti-SSA Total Ig ELISA Kit Cat. No. 5710 (manufactured by ALPHA DIAGNOSTIC INTERNATIONAL) was used. The standard protocol was partly modified. A mouse serum sample was diluted 1/10-fold, the serum of C57BL/6 mouse was added to anti-SSA calibrator solution (Calibrator solution) to give 10% serum.

anti-SS-B/La antibody = test: Anti-SS-B/La IgG ELISA of blood of Sjogren's syndrome animal model; conditions: 26-week-old NOD mouse, 50 and 250 mg/kg
Experimental: Blood samples from the 26-week-old NOD mice used in Experimental Example 2 for the measurement of the saliva secretion amount were collected, and ELISA test was carried out for two subsets of anti-SS-A/Ro and anti-SS-B/La found commonly in Sjogren's syndrome. […]
antigen: SS-B (RayBiotech, Inc., MD-27-0019P) plate: Immuno 96 Microwell Plate (Nunc, 442404) washing: 0.1% Tween 20 containing PBS (hereinafter sometimes to be referred to as PBS/T) substrate: One tablet of o-phenylenediamine dihydrochloride (OPD) (Sigma, P-4809) was dissolved in 50 mM citric acid-phosphoric acid buffer pH 5.0 (Sigma, P-4809) (10 mL), and 4 μL aqueous hydrogen peroxide was added.
SS-A and SS-B were each diluted with 50 mM carbonate buffer pH 9.6 (Sigma, C-3041) to 0.5 μg/mL and 1.0 μg/mL, respectively, and the antigen was added to an ELISA plate at 50 μL/well. After incubation at 4° C. overnight, the plate was washed 3 times with PBS/T, added with 2% BSA in PBS at 200 μL/well, and incubated at room temperature for 1 hr. After washing once with PBS/T, the serum diluted with PBS/T (100- to 500-fold) was added at 50 μL/well, and the mixture was incubated at room temperature for 1-2 hr. […]

[5] = Time-course changes in plasma concentration in Sjogren's syndrome animal model; conditions: NOD mouse, oral twice per day 50 and 250 mg/kg, repeated for 19 weeks
Experimental: The compound was orally administered twice per day to 8-week-old NOD mouse under the following conditions, and administration was repeated for 19 weeks.
To the plasma (5 μL) collected from the NOD mouse were added a solvent solution (dimethyl sulfoxide/acetonitrile (2:8), 5 μL), and compound A solution (compound A dissolved in solvent solution, 5 μL) or compound B solution (compound B dissolved in solvent solution, 5 μL) for drawing an analytical curve. An internal standard substance (acetonitrile (115 μL) containing a deuterated form of compound A, or diclofenac sodium, 100 ng/mL)) was added, and the mixture was vigorously stirred. The mixture was centrifuged at 5250 rpm. To the supernatant (30 μL) was added a dilution solvent (60 μL) to give a sample solution (mobile phase A:mobile phase B=9:1 (v/v) was used as a dilution solvent).
The above-mentioned sample solution was injected into an HPLC-MS/MS analysis apparatus, and the obtained peak area was converted to concentration from the analytical curve. The detail of the analysis apparatus is shown below.

[6] = 23-week-old NOD mouse, 50 mg/kg

SMILES: CC(C)Oc1ccc(S(=O)(=O)Nc2ccc(Cl)cc2C(=O)c2cc[n+]([O-])cc2)cc1 [compound A, N-{4-chloro-2-[(1-oxidopyridin-4-yl)carbonyl]phenyl}-4-(propan-2-yloxy)benzenesulfonamide]
- saliva secretion amount (NOD/ShiLtJ mouse [1]; 21-week-old NOD mouse, 50 mg/kg orally twice daily from 8-week-old, vehicle about 8.3): about 9.8 mg/15 min/g BW
- saliva secretion amount (NOD/ShiLtJ mouse [1]; 21-week-old NOD mouse, 250 mg/kg orally twice daily from 8-week-old, vehicle about 8.3): about 11.2 mg/15 min/g BW
- saliva secretion amount compared to the vehicle group (NOD/ShiLtJ mouse [1]; [6]): significantly suppressed a decrease in the saliva secretion amount
- saliva secretion amount compared to the vehicle group (NOD/ShiLtJ mouse [1]; 23-week-old NOD mouse, 250 mg/kg): significantly suppressed a decrease in the saliva secretion amount
- saliva secretion amount (NOD/ShiLtJ mouse [1]; 26-week-old NOD mouse, 50 mg/kg orally twice daily from 8-week-old, vehicle about 4.0): about 5.5 mg/15 min/g BW
- increase of saliva secretion amount than the vehicle group (NOD/ShiLtJ mouse [1]; 26-week-old NOD mouse, 250 mg/kg): two-fold increase
- saliva secretion amount (NOD/ShiLtJ mouse [1]; 26-week-old NOD mouse, 250 mg/kg orally twice daily from 8-week-old, vehicle about 4.0): about 8.0 mg/15 min/g BW
- effect on decrease in saliva secretion amount (dose dependence) (NOD/ShiLtJ mouse [1]; NOD mouse, 50 and 250 mg/kg, 21- and 26-week-old): significantly suppressed a decrease in the saliva secretion amount in a dose-dependent manner
- tolerability (NOD/ShiLtJ mouse [2]): clearly superior with compound A to compound B
- amount of CD4+ T cells in the salivary gland as compared to the vehicle group [3]: decreased to about half
- amount of CD8+ T cells in the salivary gland as compared to the vehicle group ([4]; 50 mg/kg): decreased to about half
- amount of CD8+ T cells in the salivary gland as compared to the vehicle group ([4]; 250 mg/kg): about one-third
- mRNA expression level of CCR9 in the salivary gland as compared to the vehicle group (CCR9): tended to decrease in a dose-dependent manner
- onset frequency (positive anti-SS-A/Ro, antibody titer not less than 30 Unit) (anti-SS-A/Ro antibody; 50 mg/kg): about 50%
- share of treatment group with anti-SS-A/Ro antibody suppressed to the control level (anti-SS-A/Ro antibody; 250 mg/kg, control C57BL/6 mouse): about 70%
- onset frequency (positive anti-SS-A/Ro, antibody titer not less than 30 Unit) (anti-SS-A/Ro antibody; 250 mg/kg): about 30%
- anti-SS-A/Ro antibody titer in blood (anti-SS-A/Ro antibody; 50 and 250 mg/kg): decreased in a dose-dependent manner
- anti-SS-B/La antibody titer in blood (anti-SS-B/La antibody): decreased in a dose-dependent manner
- blood exposure [5]: good blood exposure
- metabolism / accumulation in the body [5]: rapidly metabolized without accumulation in the body

SMILES: CC(C)(C)c1ccc(S(=O)(=O)Nc2ccc(Cl)cc2C(=O)c2cc[n+]([O-])cc2)cc1 [compound B, N-{4-chloro-2-[(1-oxidopyridin-4-yl)carbonyl]phenyl}-4-(tert-butyl)benzenesulfonamide]
- saliva secretion amount compared to the vehicle group (NOD/ShiLtJ mouse [1]; [6]): significantly higher
- dose-dependent effect on saliva secretion amount (NOD/ShiLtJ mouse [1]; 23-week-old NOD mouse, 50 and 250 mg/kg): the dose-dependent effect was not found
- AUC relative to compound A [5]: about one-tenth that of compound A
- metabolism / accumulation in the body [5]: rapidly metabolized without accumulation in the body
